# Measured values: US11136362B2, “Peptide modulators of specific calcineurin protein-protein interactions” (The Board of Trustees of the Leland Stanford Junior …, priority 2016, dated 2021)
# Where two headings read alike, the source gives them in different places. Ends that are not written are not given here.
# Assays:
# H9C2 cells = experiment: H9C2 cell model of ischemia-reoxygenation, lactate dehydrogenase release; type: cell-based
# Sprague-Dawley rats [1] = tested on: Sprague-Dawley rats
# [2] = tested on: primary neonatal cardiomyocytes (PNCM); experiment: Mitochondrial membrane potential by live cell imaging (TMRE/CMXRos), normoxia; type: cell-based, rat
# From the text: • Primary Neonatal Cardiomyocyte Isolation: Rat pups 1-3 days of age were used for primary neonatal cardiomyocyte isolation as previously described (Disatnik et al., Journal of the American Heart Association, 2013. 2:e000461). • Peptide Synthesis: Peptides were synthesized using microwave chemistry on a Liberty Microwave Peptide Synthesizer (CEM Corporation) (Gross et al., Basic Research in Cardiology, 2013. 108:381). Peptides were synthesized as one polypeptide with TAT47-57 carrier in the following order: N-terminus-TAT47-57-spacer (Gly-Gly)-cargo-C-terminus. • RT PCR: Total RNA was isolated from PNCM on day 4 in culture and H9C2 cells at passages 18, 23, 24 (Ambion RNAqueous kit). To reduce DNA contamination in the preparations, the isolated total RNA was subject to precipitation with lithium chloride and DNase digestion (Ambion DNase free). cDNA was generated from mRNA using Takara Primescript cDNA synthesis kit with oligo dT primers. Previously described primers, forward: […] (SEQ ID NO:112) and reverse: […] […] The amplified PCR product was subcloned into the pCR TOPO vector (Invitrogen) and sequenced. • Quantitative PCR: cDNA from mRNA was generated from H9C2, PNCM, and heart tissues (RA, LA, RV, LV) as described above. […]
# Sprague-Dawley rats [3] = type: in vivo, rat; conditions: for HR / MAP / RPP: CAP 0.3 mg/kg, CsA 2.5 mg/kg, V1-cal 1 mg/kg, given 5 minutes prior to reperfusion
# isolated rat hearts = experiment: Isolated heart model of ischemia-reperfusion injury; conditions: for heart rate when infused: 10 minutes prior to ischemia
# TRPV1 = target: T1, TRPV1 (Homo sapiens, UniProt Q8NER1); conditions: in vivo; cited from earlier work
# T1 construct: host or cells: human trial subjects (endogenous)
# T1 sequence (Q8NER1 whole entry): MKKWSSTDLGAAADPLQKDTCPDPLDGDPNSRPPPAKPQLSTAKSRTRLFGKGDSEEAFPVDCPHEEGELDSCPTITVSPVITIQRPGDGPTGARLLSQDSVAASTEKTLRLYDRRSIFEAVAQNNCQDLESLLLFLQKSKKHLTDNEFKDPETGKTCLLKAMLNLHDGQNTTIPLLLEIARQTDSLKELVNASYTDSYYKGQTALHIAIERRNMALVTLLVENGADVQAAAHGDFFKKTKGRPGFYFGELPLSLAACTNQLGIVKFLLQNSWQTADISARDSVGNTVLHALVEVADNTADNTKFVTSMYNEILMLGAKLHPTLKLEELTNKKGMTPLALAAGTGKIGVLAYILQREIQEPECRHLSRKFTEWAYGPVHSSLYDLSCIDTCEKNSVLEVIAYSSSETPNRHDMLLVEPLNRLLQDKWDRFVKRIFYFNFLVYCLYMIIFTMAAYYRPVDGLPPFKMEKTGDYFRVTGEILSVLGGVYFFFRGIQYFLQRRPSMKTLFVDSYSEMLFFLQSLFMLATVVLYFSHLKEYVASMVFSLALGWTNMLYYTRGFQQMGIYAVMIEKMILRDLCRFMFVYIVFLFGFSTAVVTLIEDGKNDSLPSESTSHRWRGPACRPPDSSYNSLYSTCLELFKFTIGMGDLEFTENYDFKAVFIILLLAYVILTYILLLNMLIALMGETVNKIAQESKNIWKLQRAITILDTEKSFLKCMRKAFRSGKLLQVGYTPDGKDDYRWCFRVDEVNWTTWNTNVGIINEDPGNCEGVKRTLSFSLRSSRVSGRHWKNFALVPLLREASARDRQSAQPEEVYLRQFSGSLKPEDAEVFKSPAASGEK
# [4] = Peptide stability, trypsin digestion analyzed by RP-HPLC; type: in vitro ADME; conditions: 20 minutes after exposure to trypsin; read-out: degraded
# Method: FIG. 12: Determination of peptide stability. A. At baseline a single peak at 5 minutes was noted when V1-cal was analyzed by RP-HPLC (arrow in green). B. 10 minutes after trypsin digestion, V1-cal is still detected (arrow in green), yet is 75% degraded with the with multiple peaks detected as degradation products of V1-cal (black arrows). C. 20 minutes after exposure to trypsin, V1-cal is 100% degraded (with no peak at 5 minutes and multiple other peaks shown with black arrows detected).
# [5] = tested on: Sprague-Dawley TRPV1 knockout rats; experiment: In vivo LAD ischemia-reperfusion injury model in TRPV1 knockout rats; parameters: species or system rat
# Sprague-Dawley rats [6] = experiment: In vivo rat remote conditioning (abdominal incision before LAD ischemia-reperfusion)
# [7] = 15 min Ischemia, capsaicin 0.1 mg/kg
# [8] = 15 min Ischemia, capsaicin 0.3 mg/kg
# [9] = 15 min Ischemia, capsaicin 1.0 mg/kg
# [10] = 15 min Ischemia, capsaicin 3.0 mg/kg
# [11] = 2 hrs Reperfusion, capsaicin 0.1 mg/kg
# [12] = 2 hrs Reperfusion, capsaicin 0.3 mg/kg
# [13] = 2 hrs Reperfusion, capsaicin 1.0 mg/kg
# [14] = 2 hrs Reperfusion, capsaicin 3.0 mg/kg
compound,measurement,setting,value
COc1cc(CNC(=O)CCCC/C=C/C(C)C)ccc1O [capsaicin],LDH release,H9C2 cells; 0.1 μM,reduced LDH release
same,reduction of LDH release,H9C2 cells; 1 and 10 μM,did not occur
same,infarct size,Sprague-Dawley rats [1]; 0.1 mg/kg and 1.0 mg/kg,partial effects
same,infarct size,Sprague-Dawley rats [1]; 0.3 mg/kg,maximally decreased infarct size
same,myocardial infarct size,Sprague-Dawley rats [1]; 3.0 mg/kg,failed to reduce myocardial infarct size
same,myocardial infarct size,Sprague-Dawley rats [1]; 0.1-1.0 mg/kg,reduced myocardial infarct size
same,heart rate after intravenous administration,Sprague-Dawley rats [1]; 0.1-3.0 mg/kg intravenously,dose-dependently increased heart rate
same,HR,Sprague-Dawley rats [1]; [7],373 ± 10 beats/min
same,MAP,Sprague-Dawley rats [1]; [7],110 ± 7 mmHg
same,RPP,Sprague-Dawley rats [1]; [7],47 ± 4 mmHg/1000
same,HR,Sprague-Dawley rats [1]; [8],360 ± 21 beats/min
same,MAP,Sprague-Dawley rats [1]; [8],89 ± 14 mmHg
same,RPP,Sprague-Dawley rats [1]; [8],40 ± 7 mmHg/1000
same,HR,Sprague-Dawley rats [1]; [9],385 ± 15 beats/min
same,MAP,Sprague-Dawley rats [1]; [9],104 ± 10 mmHg
same,RPP,Sprague-Dawley rats [1]; [9],46 ± 5 mmHg/1000
same,HR,Sprague-Dawley rats [1]; [10],420 ± 9 beats/min
same,MAP,Sprague-Dawley rats [1]; [10],113 ± 5 mmHg
same,RPP,Sprague-Dawley rats [1]; [10],53 ± 3 mmHg/1000
same,HR,Sprague-Dawley rats [1]; [11],362 ± 6 beats/min
same,MAP,Sprague-Dawley rats [1]; [11],86 ± 5 mmHg
same,RPP,Sprague-Dawley rats [1]; [11],39 ± 2 mmHg/1000
same,HR,Sprague-Dawley rats [1]; [12],368 ± 6 beats/min
same,MAP,Sprague-Dawley rats [1]; [12],85 ± 3 mmHg
same,RPP,Sprague-Dawley rats [1]; [12],38 ± 2 mmHg/1000
same,HR,Sprague-Dawley rats [1]; [13],367 ± 3 beats/min
same,MAP,Sprague-Dawley rats [1]; [13],79 ± 3 mmHg
same,RPP,Sprague-Dawley rats [1]; [13],36 ± 2 mmHg/1000
same,HR,Sprague-Dawley rats [1]; [14],370 ± 4 beats/min
same,MAP,Sprague-Dawley rats [1]; [14],72 ± 4 mmHg
same,RPP,Sprague-Dawley rats [1]; [14],35 ± 2 mmHg/1000
same,HR,"Sprague-Dawley rats [1]; Baseline, capsaicin 0.1 mg/kg",377 ± 13 beats/min
same,MAP,"Sprague-Dawley rats [1]; Baseline, capsaicin 0.1 mg/kg",128 ± 4 mmHg
same,RPP,"Sprague-Dawley rats [1]; Baseline, capsaicin 0.1 mg/kg",60 ± 5 mmHg/1000
same,HR,"Sprague-Dawley rats [1]; Baseline, capsaicin 0.3 mg/kg",370 ± 11 beats/min
same,MAP,"Sprague-Dawley rats [1]; Baseline, capsaicin 0.3 mg/kg",137 ± 7 mmHg
same,RPP,"Sprague-Dawley rats [1]; Baseline, capsaicin 0.3 mg/kg",60 ± 5 mmHg/1000
same,HR,"Sprague-Dawley rats [1]; Baseline, capsaicin 1.0 mg/kg",353 ± 11 beats/min
same,MAP,"Sprague-Dawley rats [1]; Baseline, capsaicin 1.0 mg/kg",131 ± 6 mmHg
same,RPP,"Sprague-Dawley rats [1]; Baseline, capsaicin 1.0 mg/kg",55 ± 3 mmHg/1000
same,HR,"Sprague-Dawley rats [1]; Baseline, capsaicin 3.0 mg/kg",357 ± 8 beats/min
same,MAP,"Sprague-Dawley rats [1]; Baseline, capsaicin 3.0 mg/kg",127 ± 4 mmHg
same,RPP,"Sprague-Dawley rats [1]; Baseline, capsaicin 3.0 mg/kg",53 ± 2 mmHg/1000
same,mitochondrial membrane potential (TMRE),"[2]; 0.1-10 μM, over 30 minutes",dose-dependently decreased mitochondrial membrane potential
same,HR,Sprague-Dawley rats [3]; 15 min Ischemia,377 ± 11 beats/min
same,MAP,Sprague-Dawley rats [3]; 15 min Ischemia,118 ± 10 mmHg
same,RPP,Sprague-Dawley rats [3]; 15 min Ischemia,51 ± 5 mmHg/1000
same,HR,Sprague-Dawley rats [3]; 2 hrs Reperfusion,363 ± 9 beats/min
same,MAP,Sprague-Dawley rats [3]; 2 hrs Reperfusion,87 ± 7 mmHg
same,RPP,Sprague-Dawley rats [3]; 2 hrs Reperfusion,39 ± 3 mmHg/1000
same,HR,Sprague-Dawley rats [3]; Baseline,370 ± 6 beats/min
same,MAP,Sprague-Dawley rats [3]; Baseline,134 ± 3 mmHg
same,RPP,Sprague-Dawley rats [3]; Baseline,58 ± 2 mmHg/1000
same,myocardial infarct size,"Sprague-Dawley rats [3]; given just prior to reperfusion, n=6/group, control 61±2%",45±1%
same,infarct size reduction when compared to control,Sprague-Dawley rats [3]; single intravenous bolus 5 minutes prior to reperfusion,27%
same,"heart rate, isolated un-paced rat hearts",isolated rat hearts; capsaicin 0.1 μM versus vehicle (DMSO),increased heart rate during the first 15 minutes of infusion
CC(=O)Nc1nc2c(Oc3cc(-c4ccc(C(F)(F)F)cc4)ncn3)cccc2s1 [AMG517],adverse effect in human clinical trials,TRPV1,caused hyperthermia
YGRKKRRQRRRGGRAITILDTEKS [V1-cal],HR,Sprague-Dawley rats [3]; 15 min Ischemia,432 ± 10 beats/min
same,MAP,Sprague-Dawley rats [3]; 15 min Ischemia,110 ± 5 mmHg
same,RPP,Sprague-Dawley rats [3]; 15 min Ischemia,47 ± 3 mmHg/1000
same,HR,Sprague-Dawley rats [3]; 2 hrs Reperfusion,389 ± 15 beats/min
same,MAP,Sprague-Dawley rats [3]; 2 hrs Reperfusion,68 ± 5 mmHg
same,RPP,Sprague-Dawley rats [3]; 2 hrs Reperfusion,26 ± 3 mmHg/1000
same,HR,Sprague-Dawley rats [3]; Baseline,428 ± 6 beats/min
same,MAP,Sprague-Dawley rats [3]; Baseline,115 ± 5 mmHg
same,RPP,Sprague-Dawley rats [3]; Baseline,49 ± 3 mmHg/1000
same,heart rate when infused,isolated rat hearts,neither peptide had any effects on heart rate
same,metabolised at 20 min,[4],100%
same,HR,[5]; 15 min Ischemia,446 ± 13 beats/min
same,MAP,[5]; 15 min Ischemia,114 ± 7 mmHg
same,RPP,[5]; 15 min Ischemia,56 ± 4 mmHg/1000
same,TIME,[5]; 15 min Ischemia,37.1 ± 0.1
same,MAP,[5]; 2 hrs Reperfusion,84 ± 8 mmHg
same,RPP,[5]; 2 hrs Reperfusion,40 ± 4 mmHg/1000
same,TIME,[5]; 2 hrs Reperfusion,37 ± 0.1
same,HR,[5]; Baseline,439 ± 12 beats/min
same,MAP,[5]; Baseline,123 ± 6 mmHg
same,RPP,[5]; Baseline,61 ± 4 mmHg/1000
same,TIME,[5]; Baseline,36.9 ± 0.2
Oc1cc2c(cc1O)CN(C(=S)NCCc1ccc(Cl)cc1)CCC2 [capsazepine],infarct size sparing effect of capsaicin,"Sprague-Dawley rats [1]; CPZ 3 mg/kg, CsA 2.5 mg/kg, 40 minutes prior to ischemia",blocked the infarct size sparing effect of capsaicin
same,change in heart rate afforded by capsaicin,"Sprague-Dawley rats [1]; capsaicin 0.3 mg/kg, CPZ 3 mg/kg, CsA 2.5 mg/kg",reduced the change in heart rate
same,changes in mitochondrial membrane potential induced by capsaicin,[2]; treated 10 minutes prior to capsaicin,blocked
same,effect on incision-induced infarct size reduction,"Sprague-Dawley rats [6]; 3 mg/kg, internal jugular vein, 10 minutes before the incision",blocked
same,HR (heart rate),Sprague-Dawley rats [6]; 15 min Ischemia,396 ± 10 beats/min
same,MAP (mean arterial pressure),Sprague-Dawley rats [6]; 15 min Ischemia,115 ± 9 mmHg
same,RPP (rate pressure product),Sprague-Dawley rats [6]; 15 min Ischemia,52 ± 5 mmHg/1000
same,HR (heart rate),Sprague-Dawley rats [6]; 2 hrs Reperfusion,374 ± 5 beats/min
same,MAP (mean arterial pressure),Sprague-Dawley rats [6]; 2 hrs Reperfusion,82 ± 3 mmHg
same,RPP (rate pressure product),Sprague-Dawley rats [6]; 2 hrs Reperfusion,39 ± 1 mmHg/1000
same,HR (heart rate),Sprague-Dawley rats [6]; Baseline,384 ± 5 beats/min
same,MAP (mean arterial pressure),Sprague-Dawley rats [6]; Baseline,121 ± 4 mmHg
same,RPP (rate pressure product),Sprague-Dawley rats [6]; Baseline,55 ± 2 mmHg/1000
same,"infarct size, agent alone, compared to control",Sprague-Dawley rats [6]; capsazepine alone,no differences were noted for infarct size compared to the control group
YGRKKRRQRRRGGAIIITILDTEIS [A5-cal],heart rate when infused,isolated rat hearts,neither peptide had any effects on heart rate
